Measured values reported in US6955921B2, “Trypsin substrate and diagnostic device, and method of using same” (Bayer Corporation, priority 2001, dated 2005).
Several values for one entry are separate records, joined by “and”; a condition that tells them apart may be missing. Equal entries are not always repeated.

Columns and labels:
[1] = target: T1, Bovine Pancreatic Trypsin (Bos taurus, UniProt P00760); assay: Dry-phase analytical element (reagent strip) for UTI measurement, decode from reflectance; assay type: biochemical; conditions: reflectance at 15 and 60 seconds; for decode, Negative Sample: Negative Sample = Water, substrate 1.25 mM in second dip; for decode, Positive Sample: Positive Sample = Water with 200 IU/mL urine trypsin inhibitor (ulinastatin)
T1 construct: purchased Calbiochem 6502; host or cells: bovine pancreas
T1 sequence (P00760 24-246): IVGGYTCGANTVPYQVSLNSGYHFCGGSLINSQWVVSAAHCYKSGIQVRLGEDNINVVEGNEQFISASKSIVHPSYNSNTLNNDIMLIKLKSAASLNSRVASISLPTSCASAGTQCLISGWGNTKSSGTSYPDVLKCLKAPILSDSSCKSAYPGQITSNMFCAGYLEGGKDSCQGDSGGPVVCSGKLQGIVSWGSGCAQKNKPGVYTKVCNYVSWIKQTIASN
Experimental: Reagent strips were made according to the following procedure: Filter paper (240 C grade from Ahlstrom Inc.) was saturated with the first dip solution and dried for 2 minutes at 80° C. and 4 minutes at 60° C. The resultant paper was then saturated with the second dip solution and dried for 6 minutes at 50° C. to form the completed reagent paper. Adhesive ([…] from 3M Inc.) was applied to the reagent paper and it was affixed to a polystyrene handle in the form of pads, which were 0.20 inch×0.20 inches square. A. Composition of the First Dip: • a. Water • b. Bicine Buffer (600 mM) • c. Ethylene glycol bis (β-aminoethyl ether) N,N,N',N'-tetra-acetic acid (EGTA) (5.1 mM) • d. Plasdone (PVP K30 from Sigma-Aldrich) (1.75% by weight) • e. MgSO4 (660 mM) • f. Bovine Pancreatic Trypsin (Calbiochem Cat. No. 6502) (272 units/mL) • g. Adjust to pH 8.00±0.02 with 1N NaOH. B. Composition of the Second Dip: • a. Acetone • b. […] KOK-10071 polymer (from Bayer Corporation) (0.1% by weight) Data were obtained by dipping the strips into the samples set out in Table 1 and placing them in a […] 50 spectrometer from Bayer Diagnostics to collect data at 15 and 60 seconds after dipping. Decode values were calculated using the equation: decode={[(B15+G15)-(B60+G60)]/(B15+G15)}*1000 Where: • B15 is the reflectance of the blue wavelength at 15 seconds, • B60 is the reflectance of the blue wavelength at 60 seconds, • G15 is the reflectance of the green wavelength at 15 seconds, and • […] is the reflectance of the green wavelength at 60 seconds.

[2] = target: T2, trypsin (Bos taurus, UniProt P00760); assay: Modified liquid assay with reagent pads, rate of fluorescent emission increase; assay type: biochemical, bovine; conditions: pH=7 buffer, excitation 335 nm
T2 sequence (P00760 24-246): T1 sequence (P00760 24-246)
Experimental: Trypsin concentrations may be instrumentally determined with the reagent pads in a modified liquid assay. Three reagent pads are extracted with 2.0 mL of 50 mM pH=7 buffer containing 0-20 u/mL of trypsin. Fluorescent emission at 385 nm is measured with a Perkin-Elmer Model LS-5 fluorescence spectrophotometer using excitation at 335 nm, and is reported in luminescence units (LU). The rate of increase of emission at 385 nm was determined graphically from the plot of LU vs. time output by the instrument.

[3] = target: T1, Bovine Pancreatic Trypsin; assay: Dry-phase analytical element for trypsin detection, fluorescence under 365 nm UV; assay type: biochemical; conditions: within one minute
Experimental: (§1) Reagent strips were made according to the following procedure: Filter paper (240 C grade from Ahlstrom Inc.) was saturated with the first dip solution and dried at ambient temperature for 2 hours, then at 110° C. for 5 minutes. The resultant paper was saturated with the second dip solution and dried for about 1 minute at 60° C. to form the completed, white reagent paper. The paper was then cut into pads, which were 0.25 inch×0.25 inches square.
(§2) A. Composition of the First Dip:
• a. Water (24.55 mL) • b. Ethylene glycol bis (β-aminoethyl ether) N,N,N′,N′-tetra-acetic acid (EGTA) (0.06 g) • c. Plasdone (PVP K30 from Sigma-Aldrich) (0.876 g) • d. MgSO4 (1.08 g) B. Composition of the Second Dip: • a. Acetone (9.3 mL) • b. Acetic acid (0.108 mL) • c. Example 5 trypsin substrate (7-(Nα-tosyl-NG-nitro-L-argininyloxy)-4-methylcoumarin, 5.0 mg)
Identical pads were separately wetted with 25 μL portions of two different test solutions and viewed under long wavelength (365 nm) ultraviolet light illumination. One test solution was 50 mM pH=7 phosphate buffer (control solution) and the second was 50 mM pH=7 phosphate buffer containing 10,000 U/mL of bovine pancreatic trypsin (test solution).

[4] = target: T1, Bovine Pancreatic Trypsin; assay: Dry-phase analytical element for trypsin detection, colour with MMBD diazonium salt; assay type: biochemical; conditions: within one minute
Experimental: as §1, §2
• a. Water (25.0 mL) • b. Ethylene glycol bis (β-aminoethyl ether) N,N,N′,N′-tetra-acetic acid (EGTA) (0.06 g) • c. Plasdone (PVP K30 from Sigma-Aldrich) (0.438 g) • d. MgSO4 (1.08 g) B. Composition of the Second Dip: • a. Acetone (7.75 mL) • b. Example 3 trypsin substrate (4-(Nα-tosyl-NG-nitro-L-argininyloxy)-2-phenyl-5H-thiazole, 3.1 mg) • c. 2-Methoxy-4-morpholinobenzene diazonium chloride, zinc chloride double salt (MMBD) (diazonium coupling agent) (2.5 mg)
Identical pads were separately wetted with 25 μL portions of two different test solutions. One test solution was 50 mM pH=8 phosphate buffer (control solution) and the second was 50 mM pH=8 phosphate buffer containing 10,000 U/mL of bovine pancreatic trypsin (test solution).

SMILES: Cc1ccc(S(=O)(=O)NC(CCCN=C(N)N[N+](=O)[O-])C(=O)Oc2c[nH]c3ccccc23)cc1 [Example 2, 3-(Nα-tosyl-NG-nitro-L-argininyloxy)indole]
- decode, Negative Sample [1]: 422
- decode, Positive Sample [1]: 168

SMILES: Cc1ccc(S(=O)(=O)N[C@@H](CCCNC(=N)N[N+](=O)[O-])C(=O)Oc2ccc3c(C)cc(=O)oc3c2)cc1 [Example 5, 7-(Nα-tosyl-NG-nitro-L-argininyloxy)-4-methylcoumarin]
- Rate of 385 nm emission increase ([2]; Trypsin concentration 0 U/mL): 0.36 LU/mm
- Rate of 385 nm emission increase ([2]; Trypsin concentration 5 U/mL): 1.21 LU/mm and 2.35 LU/mm
- Rate of 385 nm emission increase ([2]; Trypsin concentration 10 U/mL): 2.38 LU/mm and 2.08 LU/mm
- Rate of 385 nm emission increase ([2]; Trypsin concentration 20 U/mL): 3.75 LU/mm
- pad fluorescence, test solution ([3]; 50 mM pH=7 phosphate buffer containing 10,000 U/mL bovine pancreatic trypsin): fluorescing brightly
- pad fluorescence, control solution ([3]; 50 mM pH=7 phosphate buffer without trypsin): remained dull and non-fluorescent

SMILES: Cc1ccc(S(=O)(=O)N=C(N)NCCC[C@H](NS(=O)(=O)c2ccc(C)cc2)C(=O)Oc2c[nH]c(-c3ccccc3)c2)cc1 [Example 4, 3-(Nα-tosyl-NG-tosyl-L-argininyloxy)-5-phenylpyrrole]
- decode, Negative Sample [1]: 61
- decode, Positive Sample [1]: 30

SMILES: Cc1ccc(S(=O)(=O)N[C@@H](CCCNC(N)=N[N+](=O)[O-])C(=O)Oc2csc(-c3ccccc3)n2)cc1 [Example 3, 4-(Nα-tosyl-NG-nitro-L-argininyloxy)-2-phenyl-5H-thiazole]
- pad colour, test solution ([4]; 50 mM pH=8 phosphate buffer containing 10,000 U/mL bovine pancreatic trypsin): turned blue
- pad colour, control solution ([4]; 50 mM pH=8 phosphate buffer without trypsin): remained white

SMILES: Cc1ccc(S(=O)(=O)N[C@@H](CCCNC(N)=N[N+](=O)[O-])C(=O)Oc2c[nH]c(-c3ccccc3)c2)cc1 [Example 1, 3-(Nα-tosyl-NG-nitro-L-argininyloxy)-5-phenylpyrrole]
- decode, Negative Sample [1]: 474
- decode, Positive Sample [1]: 212
